In patent publication US20220332763A1, “FUSED POLYPEPTIDE AND USE THEREOF” (NANJING ANJI BIOLOGICAL TECHNOLOGY CO., LTD., priority 2019, published 2022):
Where no end group is shown, it is not given here.

What was measured:
[1] = test system: HYP; assay: Bleomycin skin fibrosis model, HYP content in skin tissue; format: in vivo, C57/BL black mice; settings: bleomycin skin fibrosis mice; 10 mg/kg subcutaneous twice a day, 28 days; FIG. 4
Procedure: Bleomycin (10 μg/mL) was injected subcutaneously every day for 28 days to form skin fibrosis. During the modeling period, the administration groups were given polypeptide drugs twice a day for treatment. After modeling, the mice were killed on the next day, and the skin tissue of the mouse back was taken to detect the content of HYP in the skin tissue.

[2] = test system: LX-2 hepatic stellate cells; assay: In vitro hepatic fibrosis model, MTT assay; format: cell-based; settings: 1 μmol/L; for Inhibition of proliferation (in words): 24 hours and 48 hours, Example 2; for Optical density value, 12 h / Optical density value, 24 h / Optical density value, 48 h: LX-2 cells, MTT, OD at 570 nm; for Optical density value, 12 h: blank group 0.456 ± 0.012; for Optical density value, 24 h: blank group 0.548 ± 0.01; for Optical density value, 48 h: blank group 0.812 ± 0.016
Procedure: (§1) The inhibitory effect of a polypeptide on LX-2 hepatic stellate cells was detected by MTT assay. Cells were cultured in a 1640 medium containing 10% of FBS, the […] was made into 4×10^5/mL cell suspension, and 100 μL per well was inoculated into a 96-well plate. After the cells adhered to the wall, the medium was replaced with a serum-free 1640 medium, and the serum-free medium was discarded after 24 hours. The cells were cultured with different polypeptides of 1 μmol/L, and 5 multiple wells were set for each concentration. After 12, 24 and 48 hours separately, 10 μL of MTT was added to each well. After 4 hours, MTT was sucked out, and 150 μL of DMSO was added to each well. After reaction for 5 min, an OD value was measured at 570 nm by a microplate reader.

[3] = test system: cardiac fibroblasts of rats; assay: Myocardial fibrosis model, MTT assay; format: cell-based; settings: 1 μmol/L; for Inhibition of proliferation of cardiac fibroblasts of rats (in words): 24 hours and 48 hours; for Optical density value, 12 h / Optical density value, 24 h / Optical density value, 48 h: cardiac fibroblasts of rats, MTT, OD at 570 nm; for Optical density value, 12 h: blank group 0.353 ± 0.001; for Optical density value, 24 h: blank group 0.464 ± 0.018; for Optical density value, 48 h: blank group 0.896 ± 0.001
Procedure: as §1, with “cardiac fibroblasts of rats” for “LX-2 hepatic stellate cells”, “DMEM” for “1640”, “1×10^5/mL” for “4×10^5/mL”

[4] = test system: TGF-β1; assay: Renal fibrosis animal model (ureter ligation), TGF-β1 in serum; format: in vivo; settings: SD rats with renal fibrosis; 7.5 mg/kg subcutaneous twice a day, 14 days; FIG. 3
Procedure: A renal fibrosis animal model was established. SD rats were anesthetized with 4% chloral hydrate, injected with 1 mL/100 g intraperitoneally, fixed to an operation board, and sterilized in an operation area for later use. […] Muscular layers and abdominal walls were sewed layer by layer, the suture was disinfected with alcohol. After SD rats woke up, the rats were put into a cage for feeding. In the blank group, ureter was not ligated, and other steps were the same.
Then, the animals fell into a blank group, a model group, and polypeptide administration groups, with 10 animals in each group, and the administration was started on the second day after the operation, twice a day for 14 days. After administration for 14 days, blood was taken and supernatant was taken to detect the content of TGF-β1 in serum.

[5] = test system: SD rats with bleomycin-induced pulmonary fibrosis; assay: Bleomycin-induced pulmonary fibrosis animal model; format: in vivo; settings: dosage 10 mg/kg in Table 2, administration 14 days, model group 50
Procedure: SD rats were anesthetized by intraperitoneal injection of 1 mL/100 g 4% chloral hydrate. After anesthesia, the rats were fixed and their necks were disinfected by using cotton with 75% alcohol. The skin of the rat neck was longitudinally cut with scissors, and the fascia and muscle were longitudinally bluntly torn with tweezers to expose the trachea. A syringe was inserted into the trachea to inject 5 mg/kg bleomycin, while a blank group was injected with an equal amount of normal saline. Then a rat plate was quickly erected and rotated, the rats' breathing was observed, the neck wound was sterilized after rotation and was sewn, and an amoxicillin anti-inflammatory drug was sprinkled on the suture. After the operation, the rats were put back into a dry and clean cage for resting, waiting was performed for awakening. The rats were awakened after about 1-2 hours, and then fed normally. On the 7th day after modeling, modeling group animals randomly fell into a model group, a Nintedanib positive drug group, polypeptide I, II, III, IV, V, VI dosage groups, and a normal control group, and the groups were administered separately for an administration cycle of 14 days. Living situations of rats were observed every day and their weights were weighed. After administration for 14 days, the SD rats were dissected, the lung tissue was taken, and the right lung tissue was placed in a tissue fixative only for fixation, and HE staining and Masson staining and slice analysis were performed.

Compound | Expression of HYP content in tissue versus model group [1] | Inhibition of proliferation (in words) [2] | Optical density value, 12 h [2] | Optical density value, 24 h [2] | Optical density value, 48 h [2] | Inhibition of proliferation of cardiac fibroblasts of rats (in words) [3] | Optical density value, 12 h [3] | Optical density value, 24 h [3] | Optical density value, 48 h [3] | Content of TGF-β1 in serum versus model group [4] | Survival rate (%) [5] [%]
Ac-SDKPGGGGTSLDASIIWAMMQNGGGGLSKL (N-terminus assumed) [Polypeptide II, Ser-Asp-Lys-Pro-linker-Thr-Ser-Leu-Asp-Ala-Ser-Ile-Ile-Trp-Ala-Met-Met-Gln-Asn-linker-Leu-Ser-Lys-Leu] | highly significantly different from the model group (***P<0.001) | could inhibit the proliferation | 0.463 ± 0.012 | 0.394 ± 0.005 | 0.578 ± 0.005 | could inhibit the proliferation | 0.352 ± 0.004 | 0.367 ± 0.016 | 0.568 ± 0.013 | highly significantly different from the model group (***P<0.001) | 80
TSLDASIIWAMMQNGGGGSDKPGGGGLSKL [Polypeptide III, Thr-Ser-Leu-Asp-Ala-Ser-Ile-Ile-Trp-Ala-Met-Met-Gln-Asn-linker-Ser-Asp-Lys-Pro-linker-Leu-Ser-Lys-Leu] | highly significantly different from the model group (*P<0.05) | could inhibit the proliferation | 0.455 ± 0.002 | 0.435 ± 0.013 | 0.642 ± 0.018 | could inhibit the proliferation | 0.349 ± 0.012 | 0.413 ± 0.003 | 0.612 ± 0.018 | highly significantly different from the model group (**P<0.01) | 80
TSLDASIIWAMMQNGGGGLSKLGGGGSDKP [Polypeptide IV, Thr-Ser-Leu-Asp-Ala-Ser-Ile-Ile-Trp-Ala-Met-Met-Gln-Asn-linker-Leu-Ser-Lys-Leu-linker-Ser-Asp-Lys-Pro] | highly significantly different from the model group (***P<0.001) | could inhibit the proliferation | 0.478 ± 0.018 | 0.472 ± 0.03 | 0.580 ± 0.012 | could inhibit the proliferation | 0.362 ± 0.015 | 0.392 ± 0.008 | 0.583 ± 0.012 | highly significantly different from the model group (***P<0.001) | 80
LSKLGGGGTSLDASIIWAMMQNGGGGSDKP [Polypeptide VI, Leu-Ser-Lys-Leu-linker-Thr-Ser-Leu-Asp-Ala-Ser-Ile-Ile-Trp-Ala-Met-Met-Gln-Asn-linker-Ser-Asp-Lys-Pro] | highly significantly different from the model group (***P<0.001) | could inhibit the proliferation | 0.453 ± 0.021 | 0.502 ± 0.013 | 0.652 ± 0.018 | could inhibit the proliferation | 0.340 ± 0.012 | 0.412 ± 0.005 | 0.622 ± 0.007 | highly significantly different from the model group (**P<0.01) | 70
COC(=O)c1ccc2c(c1)NC(=O)/C2=C(\Nc1ccc(N(C)C(=O)CN2CCN(C)CC2)cc1)c1ccccc1 [Positive drug group, Nintedanib, reference compound] | – | – | – | – | – | – | – | – | – | – | 90
